Assay results from PMC6533066 (Biomedical microdevices, 2019).
Counter-ions that a name gives are not always drawn.

Experiments:
[1] = in vivo; cited from earlier work
[2] = Wistar rats
[3] = 1 mg/kg bolus iv (jugular vein), serum, HPLC-MS/MS, mean ± SD, n = 6 rats, SD
[4] = 1 mg/kg bolus iv, mean ± SD, n = 6 rats, SD

Structure (SMILES)	detection in ISF [1]	Cmax, Serum [2, 3] [ng/mL]	Tmax, Serum [2, 3] [min]	delay in time to peak vancomycin concentration (Tmax) in ISF compared to serum ([2]; 1 mg/kg bolus iv, Student's t-test p < 0.05)	AUC Ratio (ISF:serum) [2, 4]	Cmax Ratio (ISF:serum) [2, 4]	Tmax Ratio (ISF:serum) [2, 4]
O=C1NC(=O)C(c2ccccc2)(c2ccccc2)N1 [phenytoin]	not detectable						
CN[C@H](CC(C)C)C(=O)N[C@H]1C(=O)N[C@@H](CC(N)=O)C(=O)N[C@H]2C(=O)N[C@H]3C(=O)N[C@H](C(=O)N[C@H](C(=O)O)c4cc(O)cc(O)c4-c4cc3ccc4O)[C@H](O)c3ccc(c(Cl)c3)Oc3cc2cc(c3O[C@@H]2O[C@H](CO)[C@@H](O)[C@H](O)[C@H]2O[C@H]2C[C@](C)(N)[C@H](O)[C@H](C)O2)Oc2ccc(cc2Cl)[C@H]1O [vancomycin, Vancomycin hydrochloride]		2600 ± 600	10 ± 0	~ 17 min	1.3 ± 0.2	0.9 ± 0.2	2.7 ± 1.6
